The numbers were not newly measured in paper PMC6241861 (International Journal of Nanomedicine, 2018), which cites them from elsewhere.

The target of data set [1] is T1, human neutrophil elastase (Homo sapiens, UniProt P08246).
T1 sequence (P08246 30-267): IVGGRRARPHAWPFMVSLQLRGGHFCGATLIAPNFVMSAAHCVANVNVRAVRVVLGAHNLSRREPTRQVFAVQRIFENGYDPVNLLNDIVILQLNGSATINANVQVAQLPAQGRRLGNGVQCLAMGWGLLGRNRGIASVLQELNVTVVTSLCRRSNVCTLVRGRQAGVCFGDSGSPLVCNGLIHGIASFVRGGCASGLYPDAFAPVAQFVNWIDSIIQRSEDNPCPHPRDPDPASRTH

Data set [2] deals with Pseudomonas aeruginosa elastase (Pseudomonas aeruginosa, UniProt P14756).
Pseudomonas aeruginosa elastase, sequence (P14756 198-498): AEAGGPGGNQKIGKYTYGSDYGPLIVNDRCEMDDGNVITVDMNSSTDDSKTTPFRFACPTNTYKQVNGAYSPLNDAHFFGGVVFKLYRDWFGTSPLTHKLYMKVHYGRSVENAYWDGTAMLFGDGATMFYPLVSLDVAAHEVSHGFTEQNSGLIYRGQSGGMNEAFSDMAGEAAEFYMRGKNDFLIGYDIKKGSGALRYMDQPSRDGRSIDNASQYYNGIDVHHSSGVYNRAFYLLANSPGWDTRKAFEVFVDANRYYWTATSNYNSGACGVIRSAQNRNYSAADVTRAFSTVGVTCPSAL

For LL37, the “Degradation by leukocyte elastase [HNE]” value in data set [1] was “degraded”. Also, in data set [2], the “Degradation by P. aeruginosa elastase [PE]” value is on record as “degraded”.
